Measured values: patent US20100196355A1, “Immunophilin Ligands and Methods for Modulating Immunophilin and Calcium Channel Activity” (Wyeth, priority 2007, published 2010)
Each block holds one compound with its values, some of them ahead of it.

Columns and labels:
FKBPs = test: Size exclusion binding of [14C]-1 to purified recombinant protein; set-up: species or system human; settings: 10 μM
Text: (§1) Using Gateway cloning methods developed by Invitrogen (Carlsbad, Calif.), cacnb1/CACNB 1, cacnb4/CACNB4fkbp3/FKBP25, fkbp4/FKBP52, ppid, ppif and fkbp8/FKBP38 genes were cloned into the pDEST17 (N-His6 tag) vector. The His6-CACNB1: TGG548TAA were generated from pDEST17-CACNB1 using QuikChange site-directed mutagenesis kit (Stratagene, LaJolla, Calif.). The His6 tagged protein was purified on a Ni-NTA column (Qiagen, Valencia, Calif.).

FKBP38/Ca2+/CaM = molecular target: T1, FKBP38/Ca2+/CaM (Homo sapiens, UniProt Q14318); test: as above; settings: 10 μM; 2 mM Ca2+ and 5 μM CaM
T1 construct: His6 (N); made in house
Text: as §1

CACNB4 = molecular target: T2, CACNB4 (Homo sapiens, UniProt O00305); test: as above; settings: 10 μM
T2 construct: His6 (N); made in house
Text: as §1

PPID = molecular target: T3, PPID (Homo sapiens, UniProt Q08752); test: as above; settings: 10 μM
T3 construct: His6 (N); made in house
Text: as §1

His6-CACNB1:TGG548TAA = molecular target: T4, His6-CACNB1:TGG548TAA (Homo sapiens, UniProt Q02641); test: as above; settings: 10 μM
T4 construct: His6 (N); made in house
Text: as §1

PPIF = molecular target: T5, PPIF (Homo sapiens, UniProt P30405); test: as above; settings: 10 μM
T5 construct: His6 (N); made in house
Text: as §1

[1] = tested on: Ca2+ channel in F-11 cells; test: Whole-cell patch clamp recording of Ca2+ currents in F-11 cells; assay type: cell-based, rat and mouse hybrid; settings: 5 μM in the bath for 2 hrs
Method: The whole-cell configuration of the patch-clamp technique was used to record calcium currents from the cells at room temperature using an EPC-9 amplifier (HEKA, Instrutech Corp.) with the acquisition and analysis program Pulse-PulseFit from HEKA (Lambrecht, Germany). Electrodes were fabricated using a P-87 puller (Sutter Instrument). […] The standard bath recording solution is Ca^2+ and Mg^2+ free HBSS (pH 7.4) containing 10 mM HEPES, 10 mM dextrose, and 4 mM BaCl2. Currents were filtered at 3 kHz, and the inward Ca^2+ currents were recorded from cells held at −90 mV with 10 mV depolarizing steps from −80 mV to 60 mV for 50 ms.

His6-tagged FKBP52 = molecular target: T6, His6-tagged FKBP52 (Homo sapiens, UniProt Q02790); test: [3H]-FK506 binding on Ni-chelated FLASH plate; settings: read-out: FKBP 52 (Kd)
T6 construct: made in house
T6 sequence (Q02790 1-459): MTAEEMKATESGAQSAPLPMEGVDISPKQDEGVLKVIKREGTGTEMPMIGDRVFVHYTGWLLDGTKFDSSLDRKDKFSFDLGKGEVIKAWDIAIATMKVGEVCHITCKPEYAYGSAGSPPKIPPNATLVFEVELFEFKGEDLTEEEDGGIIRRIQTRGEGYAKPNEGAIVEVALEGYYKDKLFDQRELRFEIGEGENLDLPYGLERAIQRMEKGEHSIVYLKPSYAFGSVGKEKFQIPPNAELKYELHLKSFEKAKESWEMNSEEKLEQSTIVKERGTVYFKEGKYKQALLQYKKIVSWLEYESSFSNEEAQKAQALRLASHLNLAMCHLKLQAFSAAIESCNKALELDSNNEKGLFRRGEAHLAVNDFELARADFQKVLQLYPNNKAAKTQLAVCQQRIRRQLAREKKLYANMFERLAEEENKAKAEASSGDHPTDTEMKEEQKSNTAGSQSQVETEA
Method: (§2) Reactions were carried out in triplicate at 25° C. for 30 min. Kd were calculated using methods described by Carreras (Anal. Biochem. 298, 57-61 (2001)).

His6-tagged FKBP12 = His6-tagged FKBP12 (Homo sapiens, UniProt P62942); test: [3H]-FK506 binding on Ni-chelated FLASH plate; settings: read-out: FKBP 12 (Kd)
Method: as §2

Human CD4+ T cells = test: Immunosuppression assay: IL-2 stimulated CD4+ T-cell proliferation; assay type: cell-based; settings: Homo sapiens, CD4+ T cell
Method: Human CD4^+ T cells were purified by negative selection from peripheral blood lymphocytes using RosetteSep as per manufacture's instructions (StemCell Technologies, Inc. Vancouver, British Columbia). Tosyl-activated magnetic microspheres (Dynal, Great Neck, N.Y.) were coated with anti-CD3 Ab (1 μg/10^7 microspheres), and anti-CD28Ab ([…]) as described in Blair et al. J. Immunol., 160:12, 1998. […] Protein-coated microspheres were added to purified CD4+T cells (2×10^6cells/mL, ratio 1 bead: 1 cell) and activated for 72 hours in RPMI, 10% fetal calf serum, 2 mM glutamine media. Cells were harvested, washed, and cultured overnight in fresh media and re-stimulated with IL-2 as described in Bennett et al., J. Immunol. 170:711, 2003. […] Seventy-two hours after culture re-stimulation, plates were pulsed with 1 μCi/well tritiated thymidine and incubated for a 6-16 hour period.

cortical neurons = test: Neurite outgrowth in cortical neurons; assay type: cell-based, rat; settings: siRNA-transfected rat cortical neurons, 24 h; control lamin A/C siRNA
Method: Cortical neurons were fixed using 2% paraformaldehyde for 5 min followed by 4% paraformaldehyde for 5 min. Cells were incubated in blocking solution (0.2% Triton-X+1.5% normal goat serum in PBS) followed by primary (anti-neuronal class III β-tubulin (TUJ1) (Covance Innovative Antibodies, Berkeley, Calif.) and secondary antibody (Alexa Fluor 488 goat anti-mouse) (Molecular Probes, Carlsbad, Calif.). Each step was performed at room temperature for 1 hr. Total neurite outgrowth for each condition was analyzed using the Neuronal Profiling Bioapplication on an ArrayScan HCS Reader (Cellomics, Pittsburgh, Pa.).
(§3) Briefly, cortical neuron cultures were prepared from embryonic day 15 (E15) rat embryos (Sprague-Dawley, Charles River Laboratories, Wilmington, Mass.). The embryos were collected, their brains were removed, and the cortices were dissected out in ice-cold phosphate-buffered saline (PBS) without Ca^2+ and Mg^2+. Dissected pieces of cortical tissue were pooled together and transferred to an enzymatic dissociation media containing 20 IU/ml papain in Earle's balanced salt solution (Worthington Biochemical, Freehold, N.J.) and incubated for 30 min at 37° C. After enzymatic dissociation, the papain solution was aspirated and the tissue mechanically triturated with a fire-polished Pasteur pipette in complete media [Neurobasal Medium with B-27 supplement (Gibco, Grand Island, N.Y.), 100 IU/ml penicillin, 100 μg/ml streptomycin, 3.3 μg/ml aphidicolin, 0.5 mM glutamate] containing 2,000 IU/ml DNase and 10-mg/ml ovomucoid protease inhibitor.

[2] = tested on: cultured rat cortical neurons; test: Neuronal survival assay (neurofilament ELISA); assay type: cell-based; settings: siRNA-transfected rat cortical neurons; neurofilament ELISA
Method: Cultures were fixed for 30 min with 4% paraformaldehyde at 37° C. Nonspecific binding was blocked by incubating with PBS containing 0.3% Triton X-100 and 5% fetal bovine serum (FBS) for 45 min. Cultures were then incubated overnight at 4° C. with an anti-neurofilament (200 kD) monoclonal antibody (1:1000, clone RT-97, Chemicon, Temecula, Calif.). After washing, a peroxidase-conjugated secondary antibody (1:1000, Vector Labs, Burlingame, Calif.) was applied for 2 h. After three washes, the peroxidase substrate K-BlueMax (Neogen, Lexington, Ky.; Young et al., 1999) was added to the cultures and incubated for 10 min on an orbital shaker. The peroxidase substrate is highly soluble in the K-BlueMax solution. Optical density is then readily measured using a Molecular Devices Spectramax Plus colorimetric plate reader at 650
as §3

T1 sequence (Q14318 whole entry): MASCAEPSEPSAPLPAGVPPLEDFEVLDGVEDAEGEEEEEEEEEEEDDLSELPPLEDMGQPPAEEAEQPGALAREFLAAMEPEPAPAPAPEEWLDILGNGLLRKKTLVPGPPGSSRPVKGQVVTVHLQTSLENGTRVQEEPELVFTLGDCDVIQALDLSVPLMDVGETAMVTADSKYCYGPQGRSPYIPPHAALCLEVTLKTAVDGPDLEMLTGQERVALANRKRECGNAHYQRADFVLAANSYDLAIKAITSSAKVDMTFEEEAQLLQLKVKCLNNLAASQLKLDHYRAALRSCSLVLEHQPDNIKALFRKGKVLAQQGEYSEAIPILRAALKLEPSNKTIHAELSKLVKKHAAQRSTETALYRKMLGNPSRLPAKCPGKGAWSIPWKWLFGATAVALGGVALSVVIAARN
T5 sequence (P30405 30-207): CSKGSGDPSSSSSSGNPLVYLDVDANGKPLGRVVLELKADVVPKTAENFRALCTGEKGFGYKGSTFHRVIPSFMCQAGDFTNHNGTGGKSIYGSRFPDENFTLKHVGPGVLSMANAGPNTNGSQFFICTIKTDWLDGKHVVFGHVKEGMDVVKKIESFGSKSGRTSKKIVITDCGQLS
Chain of His6-tagged FKBP12 (P62942 whole entry): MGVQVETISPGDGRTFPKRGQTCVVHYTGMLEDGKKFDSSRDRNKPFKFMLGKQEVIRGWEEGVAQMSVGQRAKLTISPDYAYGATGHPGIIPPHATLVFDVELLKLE
T3 sequence (Q08752 whole entry): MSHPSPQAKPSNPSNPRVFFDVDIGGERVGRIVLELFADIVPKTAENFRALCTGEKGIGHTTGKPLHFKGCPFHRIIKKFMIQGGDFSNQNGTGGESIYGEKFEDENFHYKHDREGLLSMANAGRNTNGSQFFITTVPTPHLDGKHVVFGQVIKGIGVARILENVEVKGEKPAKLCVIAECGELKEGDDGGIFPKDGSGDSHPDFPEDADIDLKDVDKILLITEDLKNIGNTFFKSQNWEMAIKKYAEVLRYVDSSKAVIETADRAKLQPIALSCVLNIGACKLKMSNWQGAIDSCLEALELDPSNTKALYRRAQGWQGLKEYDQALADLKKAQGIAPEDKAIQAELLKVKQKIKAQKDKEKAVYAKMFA
T4 sequence (Q02641 1-547 limits assumed): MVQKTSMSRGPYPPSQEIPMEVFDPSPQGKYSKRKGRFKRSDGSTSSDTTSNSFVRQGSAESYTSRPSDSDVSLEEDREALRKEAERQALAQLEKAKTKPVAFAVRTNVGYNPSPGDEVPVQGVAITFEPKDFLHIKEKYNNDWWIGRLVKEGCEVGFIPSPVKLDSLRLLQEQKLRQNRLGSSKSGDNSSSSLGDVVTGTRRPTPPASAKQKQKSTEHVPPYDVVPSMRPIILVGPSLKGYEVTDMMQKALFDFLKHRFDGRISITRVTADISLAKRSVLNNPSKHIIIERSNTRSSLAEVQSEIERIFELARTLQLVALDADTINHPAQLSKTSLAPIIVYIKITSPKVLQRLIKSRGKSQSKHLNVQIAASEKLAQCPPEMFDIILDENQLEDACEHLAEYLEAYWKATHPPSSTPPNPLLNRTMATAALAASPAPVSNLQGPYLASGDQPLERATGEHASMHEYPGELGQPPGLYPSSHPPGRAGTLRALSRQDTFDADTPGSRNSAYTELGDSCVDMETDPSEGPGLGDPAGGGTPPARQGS

Compound: 9,27-dihydroxy-3-{2-[4-hydroxy-3-methoxycyclohexyl ]-1-methylethyl}-10,21-dimethoxy-6,8,12,14,20,26-hexamethyl-37-phenyl-4,9,10,12,13,14,15,18,21,22,23,24,25,26,27,32,33,34,34a-nonadecahydro-3H-23,27-epoxy-18,15-(epoxyimino)pyrido[2,1-c][1,4]oxazacyclohentriacontine-1,5,11,28,29(6H, 31H)-pentone [Rapamycin analogue I]
binding of [14C]-1 to FKBPs (FKBPs): well
binding of [14C]-1 to FKBP38/Ca2+/CaM (FKBP38/Ca2+/CaM): negligibly
binding of [14C]-Compound 1 to CACNB4 (CACNB4): negligibly
binding of [14C]-1 to PPID (PPID): weakly
binding of [14C]-Compound 1 to mutant His6-CACNB1:TGG548TAA (His6-CACNB1:TGG548TAA): weakly
binding of [14C]-1 to PPIF (PPIF): negligibly

Compound: C=CC[C@@H]1/C=C(\C)C[C@H](C)C[C@H](OC)[C@H]2O[C@@](O)(C(=O)C(=O)N3CCCC[C@H]3C(=O)O[C@H](/C(C)=C/[C@@H]3CC[C@@H](O)[C@H](OC)C3)[C@H](C)[C@@H](O)CC1=O)[C@H](C)C[C@@H]2OC [FK506, reference compound]
Ca2+ current density [1]: 2.9+/−0.1 pA/pF
decrease of Ca2+ current density vs vehicle [1]: 55%

Kd (His6-tagged FKBP52): > 12 nM
Kd (His6-tagged FKBP12): > 110 nM
Compound: CCC(C)(C)C(=O)C(=O)N1CCC[C@H]1C(=O)OCCCc1cccnc1 [GPI-1046, reference compound]

Kd (His6-tagged FKBP52): 1.4 ± 0.1 nM
Compound: CO[C@H]1C[C@@H]2CC[C@@H](C)[C@@](O)(O2)C(=O)C(=O)N2CCCC[C@H]2C(=O)O[C@H]([C@H](C)C[C@@H]2CC[C@@H](O)[C@H](OC)C2)CC(=O)[C@H](C)/C=C(\C)[C@@H](O)[C@@H](OC)C(=O)[C@H](C)C[C@H](C)/C=C/C=C/C=C/1C [Rapamycin, reference compound]
IC50 (Human CD4+ T cells): 5 nM

Compound: CACNB1 siRNA: siRNA, sense GGAGAAGUACAAUAAUGACTT (SEQ ID NO:15), antisense GUCAUUAUUGUACUUCUCCTT (SEQ ID NO:16) (chemistry not given here)
total neurite outgrowth compared to control (cortical neurons): essentially unchanged
percent neuronal survival compared to control [2]: 80±3 % of control

Compound: FKBP52 siRNA: siRNA, sense CCUAGCUAUGCUUUUGGCATT (SEQ ID NO:17), antisense UGCCAAAGCAUAGCUAGGTT (SEQ ID NO:18) (chemistry not given here)
total neurite outgrowth compared to control (cortical neurons): 125±12 % of control
percent neuronal survival compared to control [2]: 112±2 % of control
